Data taken from patent US20100204265A1 (priority 2009, published 2010).

Each compound was assayed on ET (Huh-lucubineo-ET) cell line harboring I389luc-ubi-neo/NS3-3′/ET HCV replicon (assay: Replicon assay (HCV replicon, luciferase readout)). Conditions: Hepatitis C virus.
Type: cell-based
Method in brief: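 Compounds at 10-point 2-fold dilutions (overall 0.1 nM to […], 0.5% DMSO) were applied to ET cells carrying a luciferase-neo HCV replicon, seeded a day earlier. After 48-72 hours, luciferase-based % inhibition was fitted with a Hill equation for EC50, and parallel WST-1 readings gave TC50.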
In the case of `CN(C)C(=O)C1CCCN1C(=O)c1cn2cc(-c3ccoc3)cc(C(F)(F)F)c2n1` (stereo not shown) [Compound 281, 1-(6-Furan-3-yl-8-trifluoromethyl-imidazo[1,2-a]pyridine-2-carbonyl)-pyrrolidine-2-carboxylic acid dimethylamide], the EC50 is reported as greater than 50 µM.
For `CC(O)C(NC(=O)c1cn2cc(-c3ccoc3)cc(C(F)(F)F)c2n1)C(N)=O` (stereo not shown) [Compound 282, 6-Furan-3-yl-8-trifluoromethyl-imidazo[1,2-a]pyridine-2-carboxylic acid (1-carbamoyl-2-hydroxy-propyl)-amide], the EC50 was greater than 50 µM.
`O=C(NCCc1cn2cc(-c3ccoc3)cc(C(F)(F)F)c2n1)Nc1ccccc1` [Compound 283, 1-[2-(6-Furan-3-yl-8-trifluoromethyl-imidazo[1,2-a]pyridin-2-yl)-ethyl]-3-phenyl-urea] gave an EC50 greater than 50 µM.
`CC(=O)N1CCCC1C(=O)NCc1cn2cc(-c3ccoc3)cc(C(F)(F)F)c2n1` (stereo not shown) [Compound 284, 1-Acetyl-pyrrolidine-2-carboxylic acid (6-furan-3-yl-8-trifluoromethyl-imidazo[1,2-a]pyridin-2-ylmethyl)-amide] showed an EC50 greater than 50 µM.
`O=C(O)CCNC(=O)c1cn2cc(-c3ccoc3)cc(C(F)(F)F)c2n1` [Compound 285, 3-[(6-Furan-3-yl-8-trifluoromethyl-imidazo[1,2-a]pyridine-2-carbonyl)-amino]-propionic acid] was tested, and the EC50 was greater than 50 µM.
For `O=C(NC(Cc1ccccc1)C(=O)O)c1cn2cc(-c3ccoc3)cc(C(F)(F)F)c2n1` (stereo not shown) [Compound 286, 2-[(6-Furan-3-yl-8-trifluoromethyl-imidazo[1,2-a]pyridine-2-carbonyl)-amino]-3-phenyl-propionic acid], the EC50 was greater than 50 µM.
`CSCCC(NC(C)=O)C(=O)NCc1cn2cc(-c3ccoc3)cc(C(F)(F)F)c2n1` (stereo not shown) [Compound 287, 2-Acetylamino-N-(6-furan-3-yl-8-trifluoromethyl-imidazo[1,2-a]pyridin-2-ylmethyl)-4-methylsulfanyl-butyramide] was tested, and the EC50 was greater than 50 µM.
With `CC(=O)N[C@H](C(=O)NCc1cn2cc(-c3ccoc3)cc(C(F)(F)F)c2n1)C(C)C` [Compound 288, 2-Acetylamino-N-(6-furan-3-yl-8-trifluoromethyl-imidazo[1,2-a]pyridin-2-ylmethyl)-3-methyl-butyramide] the EC50 was greater than 50 µM.
With `CC(=O)NC(C(=O)NCc1cn2cc(-c3ccoc3)cc(C(F)(F)F)c2n1)C(C)O` (stereo not shown) [Compound 289, 2-Acetylamino-N-(6-furan-3-yl-8-trifluoromethyl-imidazo[1,2-a]pyridin-2-ylmethyl)-3-hydroxy-butyramide] the EC50 was greater than 50 µM.
In the case of `COC(=O)CNC(=O)Cc1cn2cc(-c3ccoc3)cc(C(F)(F)F)c2n1` [Compound 290, [2-(6-Furan-3-yl-8-trifluoromethyl-imidazo[1,2-a]pyridin-2-yl)-acetylamino]-acetic acid methyl ester], the EC50 is reported as greater than 50 µM.
Work on `COC(=O)C(CCSC)NC(=O)Cc1cn2cc(-c3ccoc3)cc(C(F)(F)F)c2n1` (stereo not shown) [Compound 291, 2-[2-(6-Furan-3-yl-8-trifluoromethyl-imidazo[1,2-a]pyridin-2-yl)-acetylamino]-4-methylsulfanyl-butyric acid methyl ester] yielded an EC50 greater than 50 µM.
Work on `COC(=O)C(CO)NC(=O)Cc1cn2cc(-c3ccoc3)cc(C(F)(F)F)c2n1` (stereo not shown) [Compound 292, 2-[2-(6-Furan-3-yl-8-trifluoromethyl-imidazo[1,2-a]pyridin-2-yl)-acetylamino]-3-hydroxy-propionic acid methyl ester] yielded an EC50 greater than 50 µM.
For `COC(=O)C(Cc1cnc[nH]1)NC(=O)Cc1cn2cc(-c3ccoc3)cc(C(F)(F)F)c2n1` (stereo not shown) [Compound 293, 2-[2-(6-Furan-3-yl-8-trifluoromethyl-imidazo[1,2-a]pyridin-2-yl)-acetylamino]-3-(3H-imidazol-4-yl)-propionic acid methyl ester], the EC50 was greater than 50 µM.
For `COC(=O)CCNC(=O)Cc1cn2cc(-c3ccoc3)cc(C(F)(F)F)c2n1` [Compound 295, 3-[2-(6-Furan-3-yl-8-trifluoromethyl-imidazo[1,2-a]pyridin-2-yl)-acetylamino]-propionic acid methyl ester], the EC50 was greater than 50 µM.
For `CC(NC(=O)Cc1cn2cc(-c3ccoc3)cc(C(F)(F)F)c2n1)C(N)=O` (stereo not shown) [Compound 296, 2-[2-(6-Furan-3-yl-8-trifluoromethyl-imidazo[1,2-a]pyridin-2-yl)-acetylamino]-propionamide], the EC50 was greater than 50 µM.
`CC(C)[C@H](NC(=O)Cc1cn2cc(-c3ccoc3)cc(C(F)(F)F)c2n1)C(N)=O` [Compound 297, 2-[2-(6-Furan-3-yl-8-trifluoromethyl-imidazol[1,2-a]pyridin-2-yl)-acetylamino]-3-methyl-butyramide] showed an EC50 greater than 50 µM.
Compound `CC(O)[C@H](NC(=O)Cc1cn2cc(-c3ccoc3)cc(C(F)(F)F)c2n1)C(N)=O` (stereo partly shown) [Compound 299, 2-[2-(6-Furan-3-yl-8-trifluoromethyl-imidazo[1,2-a]pyridin-2-yl)-acetylamino]-3-hydroxy-butyramide] has an EC50 greater than 50 µM.
Compound `NC(=O)CNC(=O)Cc1cn2cc(-c3ccoc3)cc(C(F)(F)F)c2n1` [Compound 300, N-Carbamoylmethyl-2-(6-furan-3-yl-8-trifluoromethyl-imidazo[1,2-a]pyridin-2-yl)-acetamide] has an EC50 greater than 50 µM.
`CNC(=O)CNC(=O)Cc1cn2cc(-c3ccoc3)cc(C(F)(F)F)c2n1` [Compound 301, 2-(6-Furan-3-yl-8-trifluoromethyl-imidazo[1,2-a]pyridin-2-yl)-N-methylcarbamoylmethyl-acetamide] gave an EC50 greater than 50 µM.
With `CN(C)C(=O)CNC(=O)Cc1cn2cc(-c3ccoc3)cc(C(F)(F)F)c2n1` [Compound 302, N-Dimethylcarbamoylmethyl-2-(6-furan-3-yl-8-trifluoromethyl-imidazo[1,2-a]pyridin-2-yl)-acetamide] the EC50 was greater than 50 µM.
`NC(=O)[C@H](Cc1c[nH]c2ccccc12)NC(=O)Cc1cn2cc(-c3ccoc3)cc(C(F)(F)F)c2n1` [Compound 303, 2-[2-(6-Furan-3-yl-8-trifluoromethyl-imidazo[1,2-a]pyridin-2-yl)-acetylamino]-3-(1H-indol-3-yl)-propionamide] was tested, and the EC50 was greater than 50 µM.
Work on `COC(=O)C(C)NC(=O)Cc1cn2cc(-c3ccoc3)cc(C(F)(F)F)c2n1` (stereo not shown) [Compound 304, 2-[2-(6-Furan-3-yl-8-trifluoromethyl-imidazo[1,2-a]pyridin-2-yl)-acetylamino]-propionic acid methyl ester] yielded an EC50 greater than 50 µM.
With `COC(=O)C(NC(=O)Cc1cn2cc(-c3ccoc3)cc(C(F)(F)F)c2n1)C(C)O` (stereo not shown) [Compound 305, 2-[2-(6-Furan-3-yl-8-trifluoromethyl-imidazo[1,2-a]pyridin-2-yl)-acetylamino]-3-hydroxy-butyric acid methyl ester] the EC50 was greater than 50 µM.
For `COC(=O)C(CC(C)C)NC(=O)Cc1cn2cc(-c3ccoc3)cc(C(F)(F)F)c2n1` (stereo not shown) [Compound 306, 2-[2-(6-Furan-3-yl-8-trifluoromethyl-imidazo[1,2-a]pyridin-2-yl)-acetylamino]-4-methyl-pentanoic acid methyl ester], the EC50 was greater than 50 µM.
`COC(=O)C1CCCN1C(=O)Cc1cn2cc(-c3ccoc3)cc(C(F)(F)F)c2n1` (stereo not shown) [Compound 307, 1-[2-(6-Furan-3-yl-8-trifluoromethyl-imidazo[1,2-a]pyridin-2-yl)-acetyl]-pyrrolidine-2-carboxylic acid methyl ester] gave an EC50 greater than 50 µM.
In the case of `COC(=O)C(NC(=O)Cc1cn2cc(-c3ccoc3)cc(C(F)(F)F)c2n1)c1ccccc1` (stereo not shown) [Compound 309, [2-(6-Furan-3-yl-8-trifluoromethyl-imidazo[1,2-a]pyridin-2-yl)-acetylamino]-phenyl-acetic acid methyl ester], the EC50 is reported as greater than 50 µM.
`COC(=O)C(NC(=O)Cc1cn2cc(-c3ccoc3)cc(C(F)(F)F)c2n1)C(C)C` (stereo not shown) [Compound 310, 2-[2-(6-Furan-3-yl-8-trifluoromethyl-imidazo[1,2-a]pyridin-2-yl)-acetylamino]-3-methyl-butyric acid methyl ester] was tested, and the EC50 was greater than 50 µM.
`COC(=O)C(Cc1c[nH]c2ccccc12)NC(=O)Cc1cn2cc(-c3ccoc3)cc(C(F)(F)F)c2n1` (stereo not shown) [Compound 311, 2-[2-(6-Furan-3-yl-8-trifluoromethyl-imidazol[1,2-a]pyridin-2-yl)-acetylamino]-3-(1H-indol-3-yl)-propionic acid methyl ester] was tested, and the EC50 was greater than 50 µM.
With `COC(=O)C(Cc1ccccc1)NC(=O)Cc1cn2cc(-c3ccoc3)cc(C(F)(F)F)c2n1` (stereo not shown) [Compound 312, 2-[2-(6-Furan-3-yl-8-trifluoromethyl-imidazo[1,2-a]pyridin-2-yl)-acetylamino]-3-phenyl-propionic acid methyl ester] the EC50 was greater than 50 µM.
With `NC(=O)[C@H]1CCCN1C(=O)Cc1cn2cc(-c3ccoc3)cc(C(F)(F)F)c2n1` [Compound 313, 1-[2-(6-Furan-3-yl-8-trifluoromethyl-imidazo[1,2-a]pyridin-2-yl)-acetyl]-pyrrolidine-2-carboxylic acid amide] the EC50 was greater than 50 µM.
`CN(C)C(=O)[C@H]1CCCN1C(=O)Cc1cn2cc(-c3ccoc3)cc(C(F)(F)F)c2n1` [Compound 314, 1-[2-(6-Furan-3-yl-8-trifluoromethyl-imidazo[1,2-a]pyridin-2-yl)-acetyl]-pyrrolidine-2-carboxylic acid dimethylamide] showed an EC50 greater than 50 µM.
`CS(=O)(=O)NC1CCN(C(=O)c2nc3c(C(F)(F)F)cc(-c4ccoc4)cn3c2Cl)CC1` [Compound 322, N-[1-(3-Chloro-6-furan-3-yl-8-trifluoromethyl-imidazo[1,2-a]pyridine-2-carbonyl)-piperidin-4-yl]-methanesulfonamide] gave an EC50 of 0.266 µM.
For `CC(=O)NC1CCN(C(=O)c2nc3c(C(F)(F)F)cc(-c4ccoc4)cn3c2Cl)CC1` [Compound 323, N-[1-(3-Chloro-6-furan-3-yl-8-trifluoromethyl-imidazo[1,2-a]pyridine-2-carbonyl)-piperidin-4-yl]-acetamide], the EC50 was 10.7 µM.
`O=C1CCCC2(CCN(C(=O)c3nc4c(C(F)(F)F)cc(-c5ccoc5)cn4c3Cl)CC2)N1` [Compound 324, 9-(3-Chloro-6-furan-3-yl-8-trifluoromethyl-imidazo[1,2-a]pyridine-2-carbonyl)-1,9-diaza-spiro[5.5]undecan-2-one] showed an EC50 greater than 50 µM.
